The values that follow come from ChEMBL document CHEMBL1201862, “PubChem BioAssay data set” (2004).

Structures are written as SMILES.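 96-well plates; 48 h exposure; 5 concentrations. Endpoints by linear interpolation between flanking doses. Not reached: highest tested concentration assigned. The concentration for 50% growth inhibition is given as GI50.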 Activity calls are given as the source filed them. Cut-off read from the data, not from the text of the source: active = GI50 up to about 1.1 µM and inactive = higher. Bounds are passed on as bounds.

Some test systems named below: EKVX; ACHN; U-251; NCI-H522; RXF 393; SK-MEL-28; NCI-H460; UACC-62; OVCAR-4; HOP-92; SF-268; KM12; SK-MEL-5; TK-10; HCT-15; RPMI-8226; CAKI-1; MDA-MB-435; MCF7.
Assay in all cases: inhibition of tumour cell growth, NCI panel, 48 h

Consider `NCCCNCCSSCCCCS(=O)O`, for which the GI50 with EKVX is 85.7 µM (inactive); with ACHN, 55.2 µM (inactive); in the assay on U-251, > 100 µM (inactive); in the assay with NCI-H522, 13.8 µM (inactive); in the assay with RXF 393, 30.3 µM (inactive); in the assay with SK-MEL-28 it was 20.9 µM (inactive). The GI50 in the assay with NCI-H460 is 65.9 µM (inactive); in the assay with UACC-62, 15.7 µM (inactive); in the assay with OVCAR-4, 14.6 µM (inactive); in the assay on HOP-92, > 100 µM (inactive); in the assay with SF-268, 18.1 µM (inactive); in the assay with KM12, > 10 µM (inactive). Also, the GI50 was 17.2 µM (inactive) in the assay on SK-MEL-5; > 100 µM (inactive) in the assay with TK-10; over 100 µM in the assay on HCT-15; 26.1 µM (inactive) with RPMI-8226; 75.5 µM (inactive) with CAKI-1.
With `Cc1ccc(C)c(NC(=O)CCc2nnc(S)[nH]2)c1`, the GI50 in the assay on EKVX, in the assay on ACHN, with U-251, in the assay with NCI-H522, with RXF 393 and in the assay on SK-MEL-28 was > 100 µM (inactive) throughout. Moreover, the GI50 in the assay with NCI-H460, in the assay with UACC-62, with OVCAR-4, in the assay with HOP-92, in the assay on SF-268 and with KM12 was > 100 µM (inactive) in each case. Besides, the GI50 is > 100 µM (inactive) in the assay with SK-MEL-5; > 100 µM (inactive) with TK-10; 44.2 µM in the assay with HCT-15; > 100 µM (inactive) in the assay on RPMI-8226; > 100 µM (inactive) in the assay on CAKI-1.
On to `C[C@]12CCC(=O)C=C1CC[C@@H]1[C@@H]2CC[C@]2(C)C(=O)/C(=C\c3ccccc3)C[C@@H]12`, for which the GI50 was 19 µM (inactive) in the assay with EKVX; 33.3 µM (inactive) in the assay with ACHN; 29.4 µM (inactive) in the assay with U-251; 41.1 µM (inactive) with RXF 393; > 46.8 µM (inactive) with SK-MEL-28; 17.1 µM (inactive) in the assay with NCI-H460. For the same compound, the GI50 is 23.4 µM (inactive) with UACC-62; 41.9 µM (inactive) in the assay with OVCAR-4; 24.9 µM (inactive) in the assay on MDA-MB-435; 23.2 µM (inactive) with HOP-92; 19.1 µM (inactive) in the assay with MCF7; 20.4 µM (inactive) in the assay on KM12. In addition, the GI50 in the assay on SK-MEL-5 is 14.2 µM (inactive); with TK-10, 44.7 µM (inactive); with HCT-15, 21.9 µM; with RPMI-8226, 10.9 µM (inactive); in the assay on CAKI-1 it was 43.5 µM (inactive).
For `CC(=O)C1=C(C)Cn2c(=O)c3ccccc3c(=O)n2C1`, the GI50 in the assay with EKVX, in the assay with ACHN, with U-251, in the assay on NCI-H522, with RXF 393 and in the assay on SK-MEL-28 was > 100 µM (inactive) each time. Further, the GI50 in the assay with NCI-H460, in the assay with OVCAR-4, with HOP-92, with SF-268, with KM12 and with SK-MEL-5 was > 100 µM (inactive) in each case. In addition, the GI50 in the assay on TK-10 is > 100 µM (inactive); in the assay on HCT-15 it was over 100 µM; in the assay with RPMI-8226, > 100 µM (inactive); in the assay on CAKI-1, > 100 µM (inactive).
With `N#C/C(=C\c1cc2ccccc2c2ccccc12)c1ccccc1`, the GI50 in the assay with EKVX was 20 µM (inactive); in the assay on ACHN it was 14.5 µM (inactive); in the assay on U-251 it was 5.78 µM (inactive); in the assay on NCI-H522 it was 5.83 µM (inactive); in the assay with RXF 393 it was 5.66 µM (inactive); with SK-MEL-28 it was 24 µM (inactive). Further, the GI50 was 4.67 µM (inactive) in the assay on NCI-H460; 3.75 µM (inactive) with UACC-62; 11.2 µM (inactive) with OVCAR-4; > 37.6 µM (inactive) in the assay with HOP-92; 8.17 µM (inactive) with SF-268; 5.98 µM (inactive) with KM12. Also, the GI50 in the assay with SK-MEL-5 is 5.38 µM (inactive); in the assay with TK-10, > 29.7 µM (inactive); in the assay with HCT-15 it was 5.24 µM; with RPMI-8226 it was 6.59 µM (inactive); in the assay on CAKI-1, 7.76 µM (inactive).
Take `Cn1cc(C(=O)NCCC(=N)N)cc1NC(=O)C1=[N+](C)C=C(NC(=O)c2cccc(C(=O)NC3=CC(C(=O)Nc4cc(C(=O)NCCC(=N)N)cn4C)=[N+](C)C3)c2)C1`: the GI50 in the assay on EKVX was > 100 µM (inactive); in the assay on ACHN, > 100 µM (inactive); in the assay with U-251, > 100 µM (inactive); in the assay on NCI-H522, > 100 µM (inactive); in the assay on RXF 393, 35.3 µM (inactive); in the assay on SK-MEL-28 it was > 100 µM (inactive). Besides, the GI50 was > 100 µM (inactive) in the assay on NCI-H460; 37.8 µM (inactive) with UACC-62; > 100 µM (inactive) in the assay on OVCAR-4; > 100 µM (inactive) in the assay with HOP-92; > 100 µM (inactive) in the assay with SF-268; 36.3 µM (inactive) in the assay with KM12. Moreover, the GI50 in the assay on SK-MEL-5 is 42.3 µM (inactive); in the assay with TK-10 it was > 100 µM (inactive); in the assay on HCT-15 it was over 100 µM; with RPMI-8226 it was > 100 µM (inactive); in the assay with CAKI-1, > 100 µM (inactive).
Consider `NC(=S)N/N=C(\C(=O)Nc1cccc([N+](=O)[O-])c1)c1nc2ccc([N+](=O)[O-])cc2nc1O`, for which the GI50 was 54.3 µM (inactive) in the assay with EKVX; 21.4 µM (inactive) in the assay with ACHN; > 100 µM (inactive) with U-251; 3.85 µM (inactive) in the assay on NCI-H522; > 100 µM (inactive) in the assay with RXF 393; > 100 µM (inactive) in the assay with SK-MEL-28. The GI50 in the assay on NCI-H460 was 74.6 µM (inactive); in the assay with UACC-62, 51.4 µM (inactive); in the assay with OVCAR-4, > 100 µM (inactive); with HOP-92, > 100 µM (inactive); in the assay on SF-268 it was > 100 µM (inactive); in the assay with KM12, 40.6 µM (inactive). Also, the GI50 was 30.9 µM (inactive) in the assay with SK-MEL-5, > 100 µM (inactive) in the assay with TK-10, 29.4 µM with HCT-15 and > 100 µM (inactive) with RPMI-8226.
Take `COc1ccc([C@@H]2OC(=O)C3C2C(=O)O[C@H]3c2ccc(OC)c(OC)c2)cc1OC` (stereo not given in full): the GI50 with EKVX, with ACHN, in the assay with U-251, with NCI-H522, in the assay on RXF 393 and with SK-MEL-28 was > 100 µM (inactive) throughout. Further, the GI50 with NCI-H460, in the assay with UACC-62, in the assay on OVCAR-4, with HOP-92, with SF-268 and in the assay on KM12 was > 100 µM (inactive) each time. Moreover, the GI50 in the assay on SK-MEL-5 was > 100 µM (inactive); in the assay with TK-10 it was > 100 µM (inactive); with HCT-15, over 100 µM; in the assay on RPMI-8226, > 100 µM (inactive).
With `Brc1ccc(/C=N/C23CC4CC(CC(C4)C2)C3)cc1`, the GI50 in the assay on EKVX, in the assay on ACHN, with U-251, in the assay with NCI-H522, in the assay on RXF 393 and in the assay on SK-MEL-28 was > 100 µM (inactive) in each case. Moreover, the GI50 in the assay with NCI-H460, in the assay with UACC-62, in the assay with OVCAR-4, in the assay on HOP-92, in the assay on SF-268 and with KM12 was > 100 µM (inactive) each time. Moreover, the GI50 is > 100 µM (inactive) with SK-MEL-5; > 100 µM (inactive) in the assay on TK-10; over 100 µM in the assay with HCT-15; > 100 µM (inactive) in the assay on RPMI-8226; > 100 µM (inactive) with CAKI-1.
As for `Cc1ccc(C)c(N2C(=O)C(=O)C(c3nc4ccccc4s3)C(=O)C2=O)c1`, the GI50 was > 100 µM (inactive) in the assay on EKVX; > 100 µM (inactive) with ACHN; 83.8 µM (inactive) in the assay on U-251; > 100 µM (inactive) in the assay on NCI-H522; > 100 µM (inactive) in the assay on RXF 393; > 100 µM (inactive) in the assay with SK-MEL-28. Also, the GI50 in the assay with NCI-H460, in the assay with UACC-62, in the assay with OVCAR-4, in the assay on HOP-92, with SF-268 and in the assay on KM12 was > 100 µM (inactive) throughout. In addition, the GI50 with SK-MEL-5 was > 100 µM (inactive); in the assay on TK-10, > 100 µM (inactive); in the assay with HCT-15, over 100 µM; with RPMI-8226, > 100 µM (inactive); in the assay with CAKI-1, > 100 µM (inactive).
Turning to `CC(=O)Nc1ccc(-c2nnc(SCC(=O)Nc3ccc(C)cc3)o2)cc1`, the GI50 is 31.6 µM (inactive) in the assay with ACHN; 19.4 µM (inactive) in the assay on U-251; 18.2 µM (inactive) in the assay on NCI-H522; 19 µM (inactive) with RXF 393; 16.1 µM (inactive) with SK-MEL-28; 23.2 µM (inactive) in the assay with NCI-H460. For the same compound, the GI50 in the assay on UACC-62 was 16.9 µM (inactive); in the assay on OVCAR-4, 17.7 µM (inactive); in the assay with HOP-92 it was 18.4 µM (inactive); in the assay on SF-268 it was 20.1 µM (inactive); in the assay with KM12, 19.1 µM (inactive); with SK-MEL-5, 14.7 µM (inactive). Moreover, the GI50 is 27.8 µM (inactive) with TK-10, 16.2 µM in the assay on HCT-15, 26.2 µM (inactive) in the assay with RPMI-8226 and 11.9 µM (inactive) with CAKI-1.
In the case of `Cn1cc(C[C@@H](N)C(=O)O)c2ccccc21` [INDOXIMOD], the GI50 is > 100 µM (inactive) in the assay on EKVX; > 100 µM (inactive) in the assay with ACHN; > 100 µM (inactive) in the assay on U-251; > 100 µM (inactive) in the assay on NCI-H522; 20 µM (inactive) in the assay with RXF 393; > 100 µM (inactive) in the assay with SK-MEL-28. Also, the GI50 with NCI-H460, with UACC-62, with OVCAR-4, with MDA-MB-435, with SF-268 and with MCF7 was > 100 µM (inactive) throughout. In addition, the GI50 in the assay with KM12 was > 100 µM (inactive); in the assay with TK-10, > 100 µM (inactive); in the assay with HCT-15, over 100 µM; with RPMI-8226 it was > 100 µM (inactive); in the assay on CAKI-1 it was > 100 µM (inactive).
